Marks after values point to notes of the source that are not given here.

The first data set is described as follows: logP determination by retention times (calibration with alkan-2-ones).
Conditions: not given
Turning to `COc1cccc(Nc2nccc(-c3sc(C(C)C)nc3C)n2)c1` [Example 245, 4-(2-isopropyl-4-methyl-1,3-thiazol-5-yl)-N-(3-methoxyphenyl)pyrimidine-2-amine], the chromatographic logP amounted to 3.5.
`Cc1nc(C(C)C)sc1-c1ccnc(Nc2ccc(F)c(F)c2)n1` [Example 401, N-(3,4-difluorophenyl)-4-(2-isopropyl-4-methyl-1,3-thiazol-5-yl)pyrimidine-2-amine] came in with a chromatographic logP of 3.95.
Compound `COCCOC(=O)Nc1ccc(Nc2nccc(-c3sc(C4CC4)nc3C)n2)cc1` [Example 71, 2-methoxyethyl-(4-{[4-(2-cyclopropyl-4-methyl-1,3-thiazol-5-yl)pyrimidin-2-yl]amino}phenyl)carbamate] registered a chromatographic logP of 2.51.
On to `CCc1nc(C)c(-c2ccnc(Nc3cccc([N+](=O)[O-])c3)n2)s1` [Example 237, 4-(2-ethyl-4-methyl-1,3-thiazol-5-yl)-N-(3-nitrophenyl)pyrimidine-2-amine], for which the chromatographic logP was found to be 3.14.
With `Cc1nc(N)sc1-c1ccnc(Nc2cccc(C(F)(F)F)c2)n1` [Example 209, 4-(2-amino-4-methyl-1,3-thiazol-5-yl)-N-[3-(trifluoromethyl)phenyl]pyrimidine-2-amine], the chromatographic logP stood at 1.97.
Take `COC(=O)Nc1ccc(Nc2nccc(-c3sc(C)nc3C)n2)cc1` [Example 380, methyl-(4-{[4-(2,4-dimethyl-1,3-thiazol-5-yl)pyrimidin-2-yl]amino}phenyl)carbamate]: the chromatographic logP was 1.84.
As to `Cc1nc(C)c(-c2ccnc(Nc3cccc(C(F)(F)F)c3)n2)s1` [Example 188, 4-(2,4-dimethyl-1,3-thiazol-5-yl)-N-[3-(trifluoromethyl)phenyl]pyrimidine-2-amine], the chromatographic logP is 3.3.
Regarding `Cc1nc2c(s1)-c1nc(Nc3cccc([N+](=O)[O-])c3)ncc1CC2` [Example 95, 2-Methyl-N-(3-nitrophenyl)-4,5-dihydro[1,3]thiazolo[4,5-h]quinazoline-8-amine], the chromatographic logP is 2.79.

Still in this data set, the particulars now being: * HPLC reversed-phase C18, 40° C., mobile phase 0.1% aqueous formic acid and acetonitrile, linear gradient 10% to 95% acetonitrile.
As to `Cc1nc(N(C)C)sc1-c1ccnc(Nc2cccc([N+](=O)[O-])c2)n1` [Example 686, 4-[2-(dimethylamine)-4-methyl-1,3-thiazol-5-yl]-N-(3-nitrophenyl)pyrimidine-2-amine], the logP is listed as 2.34*.
Consider `CN(C)c1nc(C(F)(F)F)c(-c2ccnc(Nc3cccc(O)c3)n2)s1` [Example 702, 3-({4-[2-(dimethylamine)-4-(trifluoromethyl)-1,3-thiazol-5-yl]pyrimidin-2-yl}amino)phenol], for which the logP is on record as 2.84*.
Turning to `CN(C)c1nc(C(F)(F)F)c(-c2ccnc(Nc3ccc(N4CCCC4=O)cc3)n2)s1` [Example 770, 1-[4-({4-[2-(dimethylamine)-4-(trifluoromethyl)-1,3-thiazol-5-yl]pyrimidin-2-yl}amino)phenyl]pyrrolidin-2-one], the logP was 2.99*.
Turning to `CN(C)c1nc(C(F)(F)F)c(-c2ccnc(Nc3ccc(O)cc3)n2)s1` [Example 697, 4-({4-[2-(dimethylamine)-4-(trifluoromethyl)-1,3-thiazol-5-yl]pyrimidin-2-yl}amino)phenol], the logP is recorded as 2.64*.
Consider `COc1ccc(Nc2nccc(-c3sc(N(C)C)nc3C)n2)cn1` [Example 785, 4-[2-(dimethylamine)-4-methyl-1,3-thiazol-5-yl]-N-(6-methoxypyridin-3-yl)pyrimidine-2-amine], for which the logP is given as 1.55*.

The data set is the same for the next values; noted with them: HPLC, reversed-phase C 18, EEC Directive 79/831 Annex V.A8; method *: 40° C., 0.1% aqueous formic acid and acetonitrile, linear gradient 10% to 95% acetonitrile.
As for `Cc1nc2c(s1)-c1nc(Nc3ccc(O)cc3)ncc1CC2` [Example 281, 4-[(2-methyl-4,5-dihydro[1,3]thiazole[4,5-h]quinazolin-8-yl)amino]phenol], the logP is on record as 1.41*.

Staying with this data set, now noted: logP(HCOOH), HCOOH.
As for `Cc1nc2c(s1)-c1nc(Nc3cccc([N+](=O)[O-])c3)ncc1CC2` [Example 95, 2-Methyl-N-(3-nitrophenyl)-4,5-dihydro[1,3]thiazolo[4,5-h]quinazoline-8-amine], the chromatographic logP worked out at 2.79.

The same data set, now with this note: logP, * HPLC reversed-phase C18, 40° C., mobile phase 0.1% aqueous formic acid and acetonitrile, linear gradient 10% to 95% acetonitrile.
The compound `COC(=O)NCc1cccc(Nc2nccc(-c3sc(SC)nc3C)n2)c1` [Example 712, methyl-[3-({4-[4-methyl-2-(methylthio)-1,3-thiazol-5-yl]pyrimidin-2-yl}amino)benzyl]carbamate] showed a chromatographic logP of 2.16.
In turn, `COCCNc1nc(C)c(-c2ccnc(Nc3ccc(OC)nc3)n2)s1` [Example 784, 4-{2-[(2-methoxyethyl)amino]-4-methyl-1,3-thiazol-5-yl}-N-(6-methoxypyridin-3-yl)pyrimidine-2-amine] showed a chromatographic logP of 1.45.
On the same count and under the same terms, the result for `Cc1nc(C(F)(F)F)c(-c2ccnc(Nc3ccc(O)cc3)n2)s1` [Example 696, 4-({4-[2-methyl-4-(trifluoromethyl)-1,3-thiazol-5-yl]pyrimidin-2-yl}amino)phenol] reads 2.39.
`COCC(C)Nc1nc(C)c(-c2ccnc(Nc3ccc(N4CCCC4=O)cc3)n2)s1` (stereo not shown) [Example 728, 1-{4-[(4-{2-[(2-methoxy-1-methylethyl)amino]-4-methyl-1,3-thiazol-5-yl}pyrimidin-2-yl)amino]phenyl}pyrrolidin-2-one] came in with a chromatographic logP of 1.64.
Still for that read-out and setting: then `CCc1nc(C)c(-c2ccnc(Nc3cccc(Cl)c3)n2)s1` [Example 424, N-(3-chlorophenyl)-4-(2-ethyl-4-methyl-1,3-thiazol-5-yl)pyrimidine-2-amine], with 3.72; and `COCCNc1nc(C)c(-c2ccnc(Nc3ccc(N(C)C)c(Cl)c3)n2)s1` [Example 805, 2-chloro-N4-(4-{2-[(2-methoxyethyl)amino]-4-methyl-1,3-thiazol-5-yl}pyrimidin-2-yl)-N1,N1-dimethylbenzene-1,4-diamine], with 1.57; and `Cc1nc(C(F)F)c(-c2ccnc(Nc3ccc(CNC(=O)OC(C)(C)C)cc3)n2)s1` [Example 758, tert-butyl-[4-({4-[4-(difluoromethyl)-2-methyl-1,3-thiazol-5-yl]pyrimidin-2-yl}amino)benzyl]carbamate], with 3.2.
`COc1ccc(Nc2nccc(-c3sc(SC)nc3C)n2)cn1` [Example 522, N-(6-methoxypyridin-3-yl)-4-[4-methyl-2-(methylthio)-1,3-thiazol-5-yl]pyrimidine-2-amine] came in with a chromatographic logP of 2.67.
Compound `c1ccc(Nc2nccc(-c3cnc(-c4ccccc4)s3)n2)cc1` [Example 787, N-phenyl-4-(2-phenyl-1,3-thiazol-5-yl)pyrimidine-2-amine] registered a chromatographic logP of 3.97.
The compound `CCCc1nc(C)c(-c2ccnc(Nc3ccccc3)n2)s1` [Example 766, 4-(4-methyl-2-propyl-1,3-thiazol-5-yl)-N-phenylpyrimidine-2-amine] gave a chromatographic logP of 3.49.
The compound `COCC(C)Nc1nc(C)c(-c2ccnc(Nc3ccc(NC(C)=O)cc3)n2)s1` (stereo not shown) [Example 578, N-{4-[(4-{2-[(2-methoxy-1-methylethyl)amino]-4-methyl-1,3-thiazol-5-yl}pyrimidin-2-yl)amino]phenyl}acetamide] yielded a chromatographic logP of 1.43.
On to `COC(=O)Nc1ccc(Nc2nccc(-c3sc(N)nc3C)n2)cc1` [Example 656, methyl-(4-{[4-(2-amino-4-methyl-1,3-thiazol-5-yl)pyrimidin-2-yl]amino}phenyl)carbamate], for which the chromatographic logP was 1.31.
Still for that read-out and setting: then `COCCCNc1nc(C)c(-c2ccnc(Nc3cccc(C(C)=O)c3)n2)s1` [Example 738, 1-{3-[(4-{2-[(3-methoxypropyl)amino]-4-methyl-1,3-thiazol-5-yl}pyrimidin-2-yl)amino]phenyl}ethanone], with 1.75; and `Clc1ccc(-c2ncc(-c3ccnc(Nc4cccc(Cl)c4)n3)s2)cc1` [Example 795, N-(3-chlorophenyl)-4-[2-(4-chlorophenyl)-1,3-thiazol-5-yl]pyrimidine-2-amine], with 5.57; and `COCCNc1nc(C)c(-c2ccnc(Nc3ccc(C(C)=O)cc3)n2)s1` [Example 751, 1-{4-[(4-{2-[(2-methoxyethyl)amino]-4-methyl-1,3-thiazol-5-yl}pyrimidin-2-yl)amino]phenyl}ethanone], with 1.72.
Compound `Cc1nc(NCC2CCCO2)sc1-c1ccnc(Nc2ccc(F)cc2)n1` (stereo not shown) [Example 489, N-(4-fluorophenyl)-4-{4-methyl-2-[(tetrahydrofuran-2-ylmethyl)amino]-1,3-thiazol-5-yl}pyrimidine-2-amine] displayed a chromatographic logP of 2.1.

The same data set, now with this note: logP, values marked *: HPLC on reversed-phase C 18, 40° C., mobile phase 0.1% aqueous formic acid and acetonitrile, linear gradient 10% to 95% acetonitrile.
As to `Cc1nc(C)c(-c2nc(Nc3cccc(Cl)c3)ncc2Cl)s1` [Example 875, 5-chloro-N-(3-chlorophenyl)-4-(2,4-dimethyl-1,3-thiazol-5-yl)pyrimidine-2-amine], the chromatographic logP turned out to be 3.86.
Consider `Cc1nc(C(C)C)sc1-c1ccnc(Nc2ccc(N3CCCC3=O)cc2)n1` [Example 831, 1-(4-{[4-(2-isopropyl-4-methyl-1,3-thiazol-5-yl)pyrimidin-2-yl]amino}phenyl)pyrrolidin-2-one], for which the chromatographic logP turned out to be 2.56.
In the case of `COCCCNc1nc(C)c(-c2ccnc(Nc3ccc(OC)nc3)n2)s1` [Example 858, 4-{2-[(3-methoxypropyl)amino]-4-methyl-1,3-thiazol-5-yl}-N-(6-methoxypyridin-3-yl)pyrimidine-2-amine], the chromatographic logP is 1.57.
Take `COCCNc1nc(C)c(-c2ccnc(Nc3ccc(Cl)cc3)n2)s1` [Example 898, N-(4-chlorophenyl)-4-{2-[(2-methoxyethyl)amino]-4-methyl-1,3-thiazol-5-yl}pyrimidine-2-amine]: the chromatographic logP stood at 2.24.
As to `COCCOc1nc(C)c(-c2ccnc(Nc3ccc(N4CCCC4=O)cc3)n2)s1` [Example 917, 1-[4-({4-[2-(2-methoxyethoxy)-4-methyl-1,3-thiazol-5-yl]pyrimidin-2-yl}amino)phenyl]pyrrolidin-2-one], the chromatographic logP was found to be 2.23.
In turn, `COCCNc1nc(C)c(-c2ccnc(Nc3ccc(F)c(F)c3)n2)s1` [Example 897, N-(3,4-difluorophenyl)-4-{2-[(2-methoxyethyl)amino]-4-methyl-1,3-thiazol-5-yl}pyrimidine-2-amine] gave a chromatographic logP of 2.15.

Values taken from US20090030024A1, “THIAZOLES AS FUNGICIDES” (priority 2005, published 2009).
